Among the data in patent US11826351B2, “Compounds useful as kinase inhibitors” (Loxo Oncology, Inc., priority 2015, dated 2023) are IC50 values, retold here.

Read-outs that look alike come from different tables or passages of the source. Where only a bound is given, the exact number is not on record here.

The target in test [1] is T1, Recombinant BTK^WT kinase (Homo sapiens, UniProt Q06187).
T1 construct: purchased Invitrogen
The test is described as follows: BTK WT binding affinity (LanthaScreen TR-FRET). Particulars: Kinase Tracer 236, 5 h incubation. In outline:
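Tracer-displacement TR-FRET: 2.5 nM recombinant BTK^WT, 2 nM Eu anti-His antibody and 15 nM Kinase Tracer 236 incubated with varying inhibitor concentrations for 5 h in Kinase Buffer A. Signal read at 340 nm excitation, 615/665 nm emission; IC50 from variable-slope log[inhibitor]–response fit.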
For orientation: Time-resolved FRET reads energy transfer from a long-lived donor to a nearby acceptor.

In test [2] the target is T2, Recombinant BTK^C481S kinase (Homo sapiens, UniProt Q06187, C481S).
T2 construct: purchased SignalChem
Kind of test: BTK C481S binding affinity (LanthaScreen TR-FRET). The settings on record: Kinase Tracer 236, 5 h incubation. In outline: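 BTK C481S tracer-displacement TR-FRET: 5 nM His-tagged kinase, 2 nM Eu anti-His antibody and 30 nM Kinase Tracer 236 incubated with titrated inhibitor for 5 h in Kinase Buffer A. Read at 340 nm excitation, 615/665 nm emission; IC50 from variable-slope log[inhibitor]–response fit.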

Test [3] addresses T3, Recombinant EGFR (Homo sapiens, UniProt P00533).
T3 construct: purchased Invitrogen
Kind of test: EGFR binding affinity (LanthaScreen TR-FRET). Particulars: Kinase Tracer 199, 5 h incubation. In outline: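 TR-FRET binding (LanthaScreen) with recombinant EGFR; signal measured across a compound concentration range. IC50 obtained by fitting RFU against log[inhibitor] to a variable-slope model.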

Test [4] concerns OCI-Ly10 human DLBCL cells. The test is described as follows: OCI-Ly10 anti-proliferative activity (Resazurin). The format is cell-based. Particulars: OCI-Ly10 cells, 72 h compound treatment, Resazurin, read-out: Proliferation Assay OCI-Ly10-20% FBS. In outline: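 OCI-Ly10 human DLBCL cells, whose growth depends on NFκB signalling, were seeded at 7.5×10^3 cells per well in 96-well plates with a range of compound concentrations and kept at 37° C for 72 h. Resazurin was then added, and after 5 h fluorescence was read at 590 nm.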

T1 sequence (Q06187 whole entry): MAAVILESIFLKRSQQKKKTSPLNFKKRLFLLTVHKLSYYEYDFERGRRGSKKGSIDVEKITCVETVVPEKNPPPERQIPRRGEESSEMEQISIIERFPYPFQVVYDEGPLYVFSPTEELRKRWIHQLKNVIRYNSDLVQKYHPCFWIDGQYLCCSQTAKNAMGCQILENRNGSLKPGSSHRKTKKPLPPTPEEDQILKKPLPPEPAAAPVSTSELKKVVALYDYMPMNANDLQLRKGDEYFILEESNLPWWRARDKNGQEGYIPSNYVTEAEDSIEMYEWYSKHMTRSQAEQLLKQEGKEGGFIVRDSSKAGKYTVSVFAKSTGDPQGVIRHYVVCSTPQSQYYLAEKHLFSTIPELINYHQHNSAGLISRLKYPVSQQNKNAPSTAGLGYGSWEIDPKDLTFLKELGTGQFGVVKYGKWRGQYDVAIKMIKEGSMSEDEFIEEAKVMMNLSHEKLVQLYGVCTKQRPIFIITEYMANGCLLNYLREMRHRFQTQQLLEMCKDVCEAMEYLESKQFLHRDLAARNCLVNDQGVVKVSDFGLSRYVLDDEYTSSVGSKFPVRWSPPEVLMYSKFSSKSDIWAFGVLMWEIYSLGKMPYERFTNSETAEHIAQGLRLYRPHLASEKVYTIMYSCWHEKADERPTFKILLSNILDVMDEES
T2 sequence (Q06187 whole entry C481S): as the sequence (Q06187 whole entry) above, with C481S counted along it
T3 sequence (P00533 25-1210): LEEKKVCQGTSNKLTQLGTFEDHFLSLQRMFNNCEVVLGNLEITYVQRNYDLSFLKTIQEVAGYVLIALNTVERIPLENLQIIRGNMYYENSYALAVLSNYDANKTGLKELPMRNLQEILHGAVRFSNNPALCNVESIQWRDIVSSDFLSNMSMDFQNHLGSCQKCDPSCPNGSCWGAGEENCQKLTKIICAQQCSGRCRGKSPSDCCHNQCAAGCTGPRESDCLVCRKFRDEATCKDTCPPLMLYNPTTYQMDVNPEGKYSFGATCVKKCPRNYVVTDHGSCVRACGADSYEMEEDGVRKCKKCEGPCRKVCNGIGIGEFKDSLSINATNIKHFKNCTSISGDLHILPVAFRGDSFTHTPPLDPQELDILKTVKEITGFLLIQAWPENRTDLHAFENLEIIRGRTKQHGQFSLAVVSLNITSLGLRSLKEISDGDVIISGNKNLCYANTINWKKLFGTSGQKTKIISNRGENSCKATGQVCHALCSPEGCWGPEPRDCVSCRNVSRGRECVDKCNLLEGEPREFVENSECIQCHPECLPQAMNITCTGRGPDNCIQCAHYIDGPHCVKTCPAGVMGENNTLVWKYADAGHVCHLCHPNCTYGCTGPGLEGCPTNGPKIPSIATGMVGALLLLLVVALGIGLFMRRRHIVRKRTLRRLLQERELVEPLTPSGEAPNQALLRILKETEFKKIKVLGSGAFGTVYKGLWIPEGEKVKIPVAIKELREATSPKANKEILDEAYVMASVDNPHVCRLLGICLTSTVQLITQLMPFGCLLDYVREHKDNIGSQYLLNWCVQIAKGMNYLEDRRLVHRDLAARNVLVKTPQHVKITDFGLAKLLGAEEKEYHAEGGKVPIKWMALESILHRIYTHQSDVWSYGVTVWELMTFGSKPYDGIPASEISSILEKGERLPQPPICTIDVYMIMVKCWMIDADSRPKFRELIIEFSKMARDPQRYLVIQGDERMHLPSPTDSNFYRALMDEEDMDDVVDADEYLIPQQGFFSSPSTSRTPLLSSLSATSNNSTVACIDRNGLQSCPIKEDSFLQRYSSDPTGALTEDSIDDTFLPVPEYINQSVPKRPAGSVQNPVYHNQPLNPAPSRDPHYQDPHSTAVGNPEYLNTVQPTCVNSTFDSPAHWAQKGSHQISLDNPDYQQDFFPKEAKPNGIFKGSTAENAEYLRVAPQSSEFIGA

For `COc1ccccc1C(=O)NCc1ccc(-c2nn(-c3ccc(CO)cc3)c(N)c2C(N)=O)cc1` [Example 49, 5-amino-1-[4-(hydroxymethyl)phenyl]-3-[4-[[(2-methoxybenzoyl)amino]methyl]phenyl]pyrazole-4-carboxamide], the IC50 in test [1] is under 10 nM; in test [2], under 10 nM; in test [3] it was 100 to 1000 nM; in test [4] (Homo sapiens, OCI-Ly10, 72 h) it was 10 to 100 nM.
For the compound `COc1ccccc1C(=O)NCc1ccc(-c2nn(C3CC(O)c4ccccc43)c(N)c2C(N)=O)cc1` (stereo not drawn) [Example 63, 5-amino-1-(3-hydroxyindan-1-yl)-3-[4-[[(2-methoxybenzoyl)amino]methyl]phenyl]pyrazole-4-carboxamide], the IC50 in test [1] is under 10 nM; in test [2], under 10 nM; in test [3] it was 100 to 1000 nM; in test [4] (Homo sapiens, OCI-Ly10, 72 h), 10 to 100 nM.
For `COc1ccc(F)cc1C(=O)NCc1ccc(-c2nn(CC(F)(F)F)c(N)c2C(N)=O)c(F)c1` [Example 125, 5-amino-3-[2-fluoro-4-[[(5-fluoro-2-methoxy-benzoyl)amino]methyl]phenyl]-1-(2,2,2-trifluoroethyl)pyrazole-4-carboxamide], the IC50 in test [1] was 10 to 100 nM; in test [2], under 10 nM; in test [3], over 10000 nM; in test [4] (Homo sapiens, OCI-Ly10, 72 h), 100 to 1000 nM.
For `COc1ccccc1C(=O)NCc1ccc(-c2nn(C3CNCC3(F)F)c(N)c2C(N)=O)cc1` (stereo not drawn) [Example 144, 5-amino-1-(4,4-difluoropyrrolidin-3-yl)-3-[4-[[(2-methoxybenzoyl)amino]methyl]phenyl]pyrazole-4-carboxamide], in that order: under 10 nM, under 10 nM, 100 to 1000 nM and 100 to 1000 nM.
On to `COc1ccccc1C(=O)NCc1ccc(-c2nn(C3CCCCC3)c(N)c2C(N)=O)cc1` [Example 18, 5-amino-1-cyclohexyl-3-[4-[[(2-methoxybenzoyl)amino]methyl]phenyl]pyrazole-4-carboxamide], for which the IC50 in test [1] was under 10 nM; in test [2] it was under 10 nM; in test [3], 100 to 1000 nM; in test [4] (Homo sapiens, OCI-Ly10, 72 h), under 10 nM; in test [4] it was 10 to 100 nM.
For the compound `COc1ccccc1C(=O)NCc1ccc(-c2nn(C(C)CO)c(N)c2C(N)=O)cc1` (stereo not drawn) [Example 135, 5-amino-1-(2-hydroxy-1-methyl-ethyl)-3-[4-[[(2-methoxybenzoyl)amino]methyl]phenyl]pyrazole-4-carboxamide], the IC50 was 10 to 100 nM in test [1]; under 10 nM in test [2]; over 10000 nM in test [3]; 1000 to 10000 nM in test [4] (Homo sapiens, OCI-Ly10, 72 h).
The like results for `COc1ccccc1C(=O)NCc1ccc(-c2nn(C3CCC(C)(C)CC3)c(N)c2C(N)=O)cc1` [Example 26, 5-Amino-1-(4,4-dimethylcyclohexyl)-3-[4-[[(2-methoxybenzoyl)amino]methyl]phenyl]pyrazole-4-carboxamide] were, in that order, under 10 nM, under 10 nM, 10 to 100 nM and under 10 nM.
Turning to `COc1ccc(F)cc1C(=O)NCc1ccc(-c2nn(C3CCN(C)CC3(F)F)c(N)c2C(N)=O)cc1` (stereo not drawn) [Example 191, 5-amino-1-(3,3-difluoro-1-methyl-4-piperidyl)-3-[4-[[(5-fluoro-2-methoxy-benzoyl)amino]methyl]phenyl]pyrazole-4-carboxamide], the IC50 in test [1] was under 10 nM; in test [2], under 10 nM; in test [3] it was 1000 to 10000 nM; in test [4] (Homo sapiens, OCI-Ly10, 72 h) it was 10 to 100 nM.
In the case of `COc1ccccc1C(=O)NCc1ccc(-c2nn(-c3cccc(C(F)(F)F)c3)c(N)c2C(N)=O)cc1` [Example 16, 5-Amino-3-[4-[[(2-methoxybenzoyl)amino]methyl]phenyl]-1-[3-(trifluoromethyl)phenyl]pyrazole-4-carboxamide], the IC50 in test [1] was 10 to 100 nM; in test [2], under 10 nM; in test [3], 1000 to 10000 nM; in test [4] (Homo sapiens, OCI-Ly10, 72 h) it was 100 to 1000 nM.
Consider `COc1ccccc1C(=O)NCc1ccc(-c2nn(CCO)c(N)c2C(N)=O)cc1` [Example 31, 5-Amino-1-(2-hydroxyethyl)-3-[4-[[(2-methoxybenzoyl)amino]methyl]phenyl]pyrazole-4-carboxamide], for which the IC50 in test [1] was 10 to 100 nM; in test [2] it was 10 to 100 nM; in test [3], over 10000 nM; in test [4] (Homo sapiens, OCI-Ly10, 72 h), 1000 to 10000 nM.
`COc1ccccc1C(=O)NCc1ccc(-c2nn(C(C)c3cccnc3)c(N)c2C(N)=O)cc1` (stereo not drawn) [Example 145, 5-amino-3-[4-[[(2-methoxybenzoyl)amino]methyl]phenyl]-1-[1-(3-pyridyl)ethyl]pyrazole-4-carboxamide]: the IC50 in test [1] is 10 to 100 nM; in test [2], 10 to 100 nM; in test [3], over 10000 nM; in test [4] (Homo sapiens, OCI-Ly10, 72 h), 100 to 1000 nM.
Consider `CCOC(=O)C1CCC(n2nc(-c3ccc(CNC(=O)c4ccccc4OC)cc3)c(C(N)=O)c2N)CC1` (stereo not drawn) [Example 40, Ethyl 4-[5-amino-4-carbamoyl-3-[4-[[(2-methoxybenzoyl)amino]methyl]phenyl]pyrazol-1-yl]cyclohexanecarboxylate], for which the IC50 in test [1] is under 10 nM; in test [2], under 10 nM; in test [3] it was 100 to 1000 nM; in test [4] (Homo sapiens, OCI-Ly10, 72 h) it was 10 to 100 nM.
For the compound `CCN1CC(n2nc(-c3ccc(CNC(=O)c4cc(F)ccc4OC)cc3)c(C(N)=O)c2N)C(F)(F)C1` (stereo not drawn) [Example 198, 5-Amino-1-(1-ethyl-4,4-difluoro-pyrrolidin-3-yl)-3-[4-[[(5-fluoro-2-methoxy-benzoyl)amino]methyl]phenyl]pyrazole-4-carboxamide], the IC50 in test [1] is under 10 nM; in test [2], under 10 nM; in test [3], 1000 to 10000 nM; in test [4] (Homo sapiens, OCI-Ly10, 72 h) it was 10 to 100 nM.
For `COc1ccc(F)cc1C(=O)NCc1ccc(-c2nn(C(C)C(F)(F)F)c(N)c2C(N)=O)cc1` (stereo not drawn) [Example 120, 5-amino-3-[4-[[(5-fluoro-2-methoxy-benzoyl)amino]methyl]phenyl]-1-(2,2,2-trifluoro-1-methyl-ethyl)pyrazole-4-carboxamide], the IC50 is under 10 nM in test [1]; under 10 nM in test [2]; 1000 to 10000 nM in test [3]; 10 to 100 nM in test [4] (Homo sapiens, OCI-Ly10, 72 h).
With `CONC(=O)C1CCC(n2nc(-c3ccc(CNC(=O)c4ccccc4OC)cc3)c(C(N)=O)c2N)CC1` (mixture of isomers) [Example 75, 5-amino-3-[4-[[(2-methoxybenzoyl)amino]methyl]phenyl]-1-[4-(methoxycarbamoyl)cyclohexyl]pyrazole-4-carboxamide], the IC50 in test [1] is under 10 nM; in test [2], under 10 nM; in test [3] it was 100 to 1000 nM; in test [4] (Homo sapiens, OCI-Ly10, 72 h), 100 to 1000 nM.
Regarding `COc1ccccc1C(=O)NCc1ccc(-c2nn(C3CCC(O)(C(F)(F)F)CC3)c(N)c2C(N)=O)cc1` (stereo not drawn) [Example 65, 5-amino-1-[4-hydroxy-4-(trifluoromethyl)cyclohexyl]-3-[4-[[(2-methoxybenzoyl)amino]methyl]phenyl]pyrazole-4-carboxamide], the IC50 in test [1] was under 10 nM; in test [2], under 10 nM; in test [3] it was 100 to 1000 nM; in test [4] (Homo sapiens, OCI-Ly10, 72 h), 10 to 100 nM.
As for `COc1ccc(F)cc1C(=O)NCc1ccc(-c2nn(C3COCC3(F)F)c(N)c2C(N)=O)cc1` (stereo not drawn) [Example 200, 5-amino-1-(4,4-difluorotetrahydrofuran-3-yl)-3-[4-[[(5-fluoro-2-methoxy-benzoyl)amino]methyl]phenyl]pyrazole-4-carboxamide], the IC50 in test [1] is under 10 nM; in test [2], under 10 nM; in test [3], 1000 to 10000 nM; in test [4] (Homo sapiens, OCI-Ly10, 72 h), 10 to 100 nM.
